Patent US4520101A (priority 1983, dated 1985)
“And” between values parts separate entries of the source, which are not always exact repeats. Identical values can stand only once.

Tested on: Cephalosporium acremonium (a high ceph C-producing mutant strain which also produces desacetyl ceph C)
Assay type: cell-based

Structure (SMILES): CCOP(=O)(OCC)C(C)=O [diethyl acetyl phosphonate]
- Ceph C: 9285 µg/g and 9665 µg/g
- Des C/Total Ceph Nucleus (Ceph C + Des Ceph C): 4.52% and 4.40%
- Des Ceph C: 440 µg/g and 445 µg/g
